A word on the solubility: it is how much of the substance goes into solution per volume. A low value points to a poorly soluble substance.

Consider 7 compounds from patent publication US20090209494A1, “21-DEOXYMACBECIN ANALOGUES USEFUL AS ANTITUMOR AGENTS” (priority 2005, published 2009).

Values after ≈ are worked out from the molar mass of the structure shown.

One data set is described as follows: Solubility assay. The settings on record: aqueous buffer, kinetic from dmso stock; 2% DMSO in PBS pH 7.3; shaken up to six hours; maximum measurable 0.5 mM. In kind it is physicochemical. The method, then: Solutions (25 mM) of the test compounds were prepared by dissolving 3-5 mg aliquots in the appropriate amount of DMSO.
Aliquots (0.01 mL) were added to 0.490 mL of pH 7.3 PBS in glass vials. For each time point, 3 PBS vials were prepared in amber glass vials. For the six hour time point triplicate aliquots in DMSO were also prepared.
The resulting 0.5 mM solutions were shaken for up to six hours, with vials removed for analysis at 1, 3 and 6 hours. Samples were analysed by HPLC (0.025 mL injections).
Solubility in 2% DMSO in PBS at each time point was determined by comparing total peak areas for each chromatogram with mean total peak area for chromatograms produced from the corresponding 6 hour DMSO solutions. (Mean total peak area in DMSO solutions was assumed to be equivalent to a 0.5 mM solution).

For another data set, the system named is DU145. The data set can be described thus: in vitro anticancer activity in combination with compound 14, modified propidium iodide assay. The data set is classed as cell-based, human. The procedure:
Standard agents were applied at 10 concentrations in sextuplicates in half-log increments. […] Growth inhibition is expressed as treated/control×100 (% T/C), and IC70 values for each combination were determined by plotting compound concentration versus cell viability.
In vitro evaluation of 14 for anticancer activity when combined with standard cytotoxic agents against the tumour cell line DU145 in a monolayer proliferation assay was carried out as described in the general methods using a modified propidium iodide assay.

[1] abbreviates: concentration of 14: 0 nM (standard agent alone).

As to `CO[C@H]1[C@@H](OC)C[C@H](C)[C@@H](OC)c2cc(O)cc(c2O)NC(=O)/C(C)=C/C=C\[C@H](C)[C@@H](OC(N)=O)/C(C)=C/[C@@H]1C` [18,21-dihydromacbecin], in “Solubility assay”, the concentration in solution (solubility) came to 136 µM (≈ 76.3 µg/mL).

With `O=NN(CCCl)C(=O)NC1CCCCC1` [CCNU, Cyclohexylchloroethylnitrosurea], the “IC70 of standard agent” value turned out to be 11.30 µg/mL in the data set with DU145 (combined with 14 at 80 nM), 9.34 µg/mL in the data set on DU145 (combined with 14 at 120 nM), 1.63 µg/mL in the data set on DU145 (combined with 14 at 160 nM) and 19.74 µg/mL with DU145 (setting [1]).

`COC1=C2C[C@@H](C)C[C@H](OC)[C@H](O)[C@@H](C)/C=C(\C)[C@H](OC(N)=O)[C@@H](OC)/C=C\C=C(/C)C(=O)NC(=CC1=O)C2=O` [Geldanamycin, geldanamycin] returned a solubility in the data set “Solubility assay” of 1.7 µM (≈ 0.953 µg/mL).

Turning to `O=P1(NCCCl)OCCCN1CCCl` (stereo not shown) [ifosfamid], the “IC70 of standard agent” value was 80.57 µg/mL in the data set with DU145 (combined with 14 at 80 nM), 52.09 µg/mL in the data set on DU145 (combined with 14 at 120 nM), 17.32 µg/mL in the data set on DU145 (combined with 14 at 160 nM) and 90.14 µg/mL with DU145 (setting [1]).

Regarding `CO[C@@]12[C@H](COC(N)=O)C3=C(C(=O)C(C)=C(N)C3=O)N1C[C@@H]1N[C@@H]12` [mitomycin, mitomycin C], the “IC70 of standard agent” value in the data set with DU145 (combined with 14 at 30 nM) amounted to 0.112 µg/mL; in the data set on DU145 (combined with 14 at 50 nM) it was 0.087 µg/mL; in the data set with DU145 (combined with 14 at 80 nM), 0.056 µg/mL; with DU145 (setting [1]), 0.165 µg/mL.

For `O=C1c2c(O)ccc(O)c2C(=O)c2c(NCCNCCO)ccc(NCCNCCO)c21` [mitoxantrone], the “IC70 of standard agent” value in the data set with DU145 (combined with 14 at 80 nM) was 1.00 µg/mL; in the data set with DU145 (combined with 14 at 120 nM) it was 1.25 µg/mL; with DU145 (combined with 14 at 160 nM), 0.11 µg/mL; in the data set on DU145 (setting [1]), 2.08 µg/mL.

Turning to `CC[C@]1(O)C[C@@H]2CN(CCc3c([nH]c4ccccc34)[C@@](C(=O)OC)(c3cc4c(cc3OC)N(C)[C@H]3[C@@](O)(C(N)=O)[C@H](O)[C@]5(CC)C=CCN6CC[C@]43[C@@H]65)C2)C1` [vindesine], the “IC70 of standard agent” value came to 0.0008 µg/mL in the data set on DU145 (combined with 14 at 80 nM), 0.0006 µg/mL with DU145 (combined with 14 at 120 nM), 0.0001 µg/mL with DU145 (combined with 14 at 160 nM) and 0.0009 µg/mL in the data set on DU145 (setting [1]).
